Data set [1] has as its system endogenous glucocorticoid receptor (A549 cells). The data set can be described thus: In vitro assay to measure GR-induced AP-1 transrepression (luciferase reporter in A549 cells). Format: cell-based. The following applies: at a concentration of ≦10 µM; typical value for the positive control. Here is the method:
The AP-1 assay is a cell-based luciferase reporter assay. A549 cells, which contain endogenous glucocorticoid receptor, were stably transfected with an AP-1 DNA binding site attached to the luciferase gene. Cells are then grown in RPMI+10% fetal calf serum (charcoal-treated)+Penicillin/Streptomycin with 0.5 mg/mL geneticin. Cells are plated the day before the assay at approximately 40000 cells/well. On assay day, the media is removed by aspiration and 20 μL assay buffer (RPMI without phenol red+10% FCS (charcoal-treated)+Pen/Strep) is added to each well. At this point either 20 μL assay buffer (control experiments), the compounds of the present invention (“test compounds”) (dissolved in DMSO and added at varying concentrations) or dexamethasome (100 nM in DMSO, positive control) are added to each well. The plates are then pre-incubated for 15 min at 37° C., followed by stimulation of the cells with 10 ng/mL PMA. The plates are then incubated for 7 h at 37° C. after which 40 μL luciferase substrate reagent is added to each well. Activity is measured by analysis in a luminometer as compared to control experiments treated with buffer or dexamethasome. […] The control, dexamethasone, at a concentration of ≦10 µM typically suppresses activity by 65%.
(In general: Reporter assays use an easily measured gene product as a stand-in for the process of interest.)

The next data set addresses T1, AR (Rattus norvegicus, UniProt P15207).
T1 sequence (P15207 1-902): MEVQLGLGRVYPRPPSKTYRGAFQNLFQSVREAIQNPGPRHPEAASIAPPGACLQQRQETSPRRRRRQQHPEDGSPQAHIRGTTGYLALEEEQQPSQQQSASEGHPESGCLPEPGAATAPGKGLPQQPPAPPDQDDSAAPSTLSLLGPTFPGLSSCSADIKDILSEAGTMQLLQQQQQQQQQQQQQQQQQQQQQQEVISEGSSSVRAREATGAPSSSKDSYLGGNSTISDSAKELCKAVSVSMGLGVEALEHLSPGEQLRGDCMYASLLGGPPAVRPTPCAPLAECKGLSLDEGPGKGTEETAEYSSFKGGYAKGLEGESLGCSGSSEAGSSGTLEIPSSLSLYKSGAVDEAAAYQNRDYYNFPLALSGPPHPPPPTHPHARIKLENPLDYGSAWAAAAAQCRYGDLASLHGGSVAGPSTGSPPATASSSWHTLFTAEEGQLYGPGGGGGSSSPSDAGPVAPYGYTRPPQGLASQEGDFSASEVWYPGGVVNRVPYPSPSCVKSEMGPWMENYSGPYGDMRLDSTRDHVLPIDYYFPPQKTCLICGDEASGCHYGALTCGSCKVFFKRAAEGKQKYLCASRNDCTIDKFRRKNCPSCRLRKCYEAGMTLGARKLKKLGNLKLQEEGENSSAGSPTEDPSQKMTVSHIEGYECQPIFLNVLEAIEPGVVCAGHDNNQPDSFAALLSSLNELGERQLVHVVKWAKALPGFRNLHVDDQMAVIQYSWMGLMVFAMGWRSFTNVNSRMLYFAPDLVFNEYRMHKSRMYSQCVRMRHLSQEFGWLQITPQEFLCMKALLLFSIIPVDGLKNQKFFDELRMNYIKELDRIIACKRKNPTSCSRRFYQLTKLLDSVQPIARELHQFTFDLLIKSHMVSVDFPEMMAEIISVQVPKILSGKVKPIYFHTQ
An excerpt: The activity of compounds of the present invention as AR agonists was investigated in an immature male rat model, a recognized test of anabolic effects in muscle and sustaining effects in sex organs for a given compound, as described in L. G. Hershberger et al., Proc. Soc. […] Biol. Med., 83, 175 (1953); B. L. Beyler et al, “Methods for evaluating anabolic and catabolic agents in laboratory animals”, J. Amer. Med. Women's Ass., 23, 708 (1968); H. Fukuda et al., “Investigations of the levator ani muscle as an anabolic steroid assay”, Nago Dai. Yak. Ken. Nem. 14, 84 (1966) the disclosures of which are herein incorporated by reference.
The basis of this assay lies in the well-defined action of androgenic agents on the maintenance and growth of muscle tissues and sexual accessory organs in animals and man. […] J. Anat. […] I. Quantitative data” Boll.-Soc. Ital. Biol. Sper. […] II. Electron-microscopic observations” Boll.-Soc. Ital. Biol. Sper. 42, 1600 (1966); A. Boris et al., Steroids 15, 61 (1970). As described above, the effects of androgens on maintenance of male sexual accessory organs, such as the prostate and seminal vesicles, is well described. Castration results in rapid involution and atrophy of the prostate and seminal vesicles. This effect can be reversed by exogenous addition of androgens. […]

On to `Cc1c(N2C[C@@H]3[C@@H](O)CCN3C2=O)ccc(C#N)c1Cl`, for which the melting point (as a rule, the temperature, or range, at which the solid turns liquid) was in the range of 148 to 149 °C.

For the compound `C[C@@H]1C[C@H]2[C@@H]3CCC4=CC(=O)C=C[C@]4(C)[C@@]3(F)[C@@H](O)C[C@]2(C)[C@@]1(O)C(=O)CO` [dexamethasone], the “suppression of activity (% inhibition of the reporter system vs buffer control with 10 ng/mL PMA alone)” value in data set [1] worked out at 65%.

Turning to `CCC(=O)O[C@H]1CC[C@H]2[C@@H]3CCC4=CC(=O)CC[C@]4(C)[C@H]3CC[C@]12C` [TP, Testosterone Propionate], at AR (castrated rats, organ weight increase), the “EC50 (increase in organ weight)” value is on record as roughly 0.03 mg. The “potency relative to free T” value on AR (higher potency than free T) is reported as 10-30 fold.

Source of the values: patent US7772267B2, “Bicyclic modulators of androgen receptor function” (Bristol-Myers Squibb Company, priority 2002, dated 2010).
